The values below come from a melting point compilation (Tetko et al.; mined from patent text by program, amines drawn as free bases though some values may be those of a salt).

The structures appear in SMILES notation.

For the molecule `CC(C)(C)OC(=O)NC1C(=O)N(C(O)C(=O)OC(c2ccccc2)c2ccccc2)C1CBr` (configuration not stated), the melting point lay in the range of 133 to 137 °C. To `CCCCCCCCCCCCCCCCCCNC(=O)O[C@H]1CCCO[C@H]1CO` (relative stereo) belongs 85 to 86 °C; to `CCOC(=O)c1csc(Cc2ccc([N+](=O)[O-])cc2)n1`, 122 to 123 °C. For the molecule `CON(C)Cc1nc2cnc3ccccc3c2n1CC1CCOCC1`, the melting point lay within 142 to 144 °C. For the molecule `NC(=O)c1nc(-c2cccnc2)nc2c1[nH]c(=O)n2[C@H]1CC[C@H](O)CC1`, the melting point fell in the range of 331 to 333 °C. For the molecule `O=C1N(Cc2noc(C(F)(F)F)n2)c2ccccc2C12COc1cc3c(cc12)OCCO3` (configuration not stated), the melting point is 159 to 160 °C. On to `CC(=O)C1C(=O)CN(Cc2ccccc2)C1=O` (configuration not stated), for which the melting point lay within 74 to 75 °C. In the case of `CC1=C2CCc3cc(Cl)ccc3N2CCC1=O`, the melting point lay in the range of 112 to 114 °C. Regarding `CCCOc1ccc(Br)c2c(=O)c3ccccc3sc12`, the melting point lay in the range of 112 to 114 °C. For `O=c1[nH]c2cc(Br)ccc2c(=O)n1Cc1ccc(Br)cc1F`, the melting point is greater than 280 °C.

Take `Cn1c(COc2ccc(C#N)cc2)nc2nc(CO)ccc21`: the melting point is 172 °C. To `Cc1onc(NS(=O)(=O)c2ccccc2-c2ccc(-c3ncco3)cc2CN2CCC(C)(C)C2=O)c1C` belongs 110 to 117 °C; to `COc1cc(OCc2ccccn2)ccc1/C=C/C(=O)CC(=O)/C=C/c1cc2ccccc2[nH]1`, 178 to 179 °C; to `CC12CCC3c4ccc(C(=O)O)cc4CCC3C1CCC2C(=O)CCC1CCCCC1` (configuration not stated), 250 to 253 °C. Molecule `O=C1C=C(NC(=O)C(=O)c2cn(Cc3ccc(F)cc3)c3ccccc23)CO1` gave a melting point of 260 to 262 °C.

Take `Cc1ccc(Cl)c(-c2nn(C(C)(C)C(=O)N(C)C)cc2C)c1`: the melting point was 106 to 108 °C.

For `CC1Cc2cc(Cl)ccc2C(c2ccc([N+](=O)[O-])cc2)O1` (configuration not stated), the melting point fell in the range of 118 to 120 °C. The figure for `CC(=O)N1N=C(c2ccc([N+](=O)[O-])cc2)c2cc(Br)ccc2CC1C` (configuration not stated) is 228 to 230 °C; for `Nc1nc2ccccc2c2c1nc(C1CCOC1)n2CCOc1ccccc1` (configuration not stated) it is 236 °C; for `Clc1ccc2c(C3=CCN(CCCOc4cccc5[nH]ccc45)CC3)c[nH]c2c1Cl` it is 224 to 227 °C.

`C=C(C)C(=O)Nc1ccc(O)c(-n2nc3ccc(Cl)cc3n2)c1` gave a melting point of 204 to 205 °C.

`N#CC(C#N)=C1N(CCCN2CCCCC2)CCN1CCN1CCc2ccccc2C1`: the melting point is 101 to 102 °C. `CC(=O)Oc1ccc2cc(-c3ccc(C(=O)O)cc3)ccc2c1` yielded a melting point of 254 to 256 °C. Molecule `CC(C)n1c(C=O)c(-c2ccc(F)cc2)c(-c2ccc(F)cc2)c1C(=O)OCc1ccccc1` showed a melting point of 94 to 95 °C. Molecule `CS(=O)(=O)c1ccc(-c2cnn(-c3ccc(F)c(Cl)c3)c(=O)c2Cc2cccc(F)c2)cc1` registered a melting point of 101 to 103 °C.

On to `CCCNc1ccc2nc(NC(=O)c3ccc(C(C)(C)C)cc3)cn2n1`, for which the melting point was in the range of 243 to 244 °C. To `CC(Cl)(Cl)C(NC(=O)c1cccc(Cl)c1)NC(=NC#N)Nc1cccc(F)c1` (configuration not stated) belongs 179 to 181 °C; to `O=C(O)CC1CCCc2cc(S(=O)(=O)c3ccccc3)ccc21` (configuration not stated), 144 °C. To `COc1ccc2c(c1OCC#N)CCC=C2` belongs 138 to 139 °C; to `c1ccc(-c2nn3c(N4CCCC4)nnc3c3ccccc23)cc1`, 245 to 247 °C.

In the case of `C=CCc1c(O)ccc2ccc(=O)n(CC=C(C)C)c12`, the melting point fell in the range of 138 to 142 °C. The figure for `c1cnc(NC2CCN(CC3CCc4ccccc4O3)CC2)nc1` (configuration not stated) is 142 °C; for `COc1ccc(S(=O)(=O)c2cc3c(cc2C)OC(C(=O)O)O3)cc1NC(C)=O` (configuration not stated) it is 230 °C; for `O=C(CCCCCCCCC(=O)N(CCO)CCO)N(CCO)CCO` it is 87 to 98 °C. For the molecule `CCS(=O)(=O)Nc1n[nH]c2nc(Oc3ccc(F)cc3F)ncc12`, the melting point is 226 to 227 °C. For the molecule `O=[N+]([O-])c1ccc2[nH]c(/C=C/c3ccncc3)nc2c1`, the melting point is greater than 280 °C. For the molecule `COC(=O)c1ccc(OC)nc1S(=O)(=O)NC(=O)Nc1nc(OC)cc(OC)n1`, the melting point lay within 194 to 196 °C.

The molecule `Nc1ncc(Br)c(NCC2(CO)CCC2)n1` registered a melting point of 156 to 158 °C. With `COc1ccc(CCCC(O)CCC(=O)O)cc1` (configuration not stated), the melting point was in the range of 67 to 68 °C. For `CCCCSc1cc([N+](=O)[O-])cc(C(O)=NC)c1C(=O)O`, the melting point is 106 to 108 °C. The figure for `COC(=O)C1=C(C)NC(C)=C(C(=O)OCCCOc2ccc(CCCCO)cc2)C1c1cccc([N+](=O)[O-])c1` (configuration not stated) is 72 °C. The figure for `COC(=O)C1CCC2C3CCC4CC(O)C(Br)CC4(C)C3CCC12C` (configuration not stated) is 195 to 198 °C; for `NS(=O)(=O)c1ncnc2c1ccn2C1CC(O)C(CO)O1` (configuration not stated) it is 175 to 177 °C. Regarding `O=C1C=NC(c2ccccc2)O1` (configuration not stated), the melting point worked out at 90 °C. In turn, `CCOC(=O)NCc1cc(-c2ccccc2)no1` returned a melting point of 82 °C. Regarding `Cc1ccccc1C(=O)CN1C(=O)C(NC(=O)Nc2cccc(C(=O)NS(C)(=O)=O)c2)CN(c2ccccc2)c2ccccc21` (configuration not stated), the melting point fell in the range of 210 to 220 °C. `Cc1cc(-c2cc(C(F)(F)F)n3ncc(C(=O)O)c3n2)ccc1Cl` gave a melting point of 243 °C. The molecule `O=C(O)CN1C(=O)C(=Cc2ccc(OCCc3ccccc3)c(OC(c3ccccc3)C(F)(F)F)c2)SC1=S` (configuration not stated) came in with a melting point of 168 °C. The figure for `Fc1ccc(Nc2ncnc3cnc(NCC4CCNCC4)nc23)cc1Cl` is 204 to 206 °C; for `CC(C)(C)c1cc(N)n(-c2ccccc2)n1` it is 65 to 67 °C; for `CCOC(=O)COc1cc(O)c2c(c1)NC1(CCCCC1)CC2=O` it is 134 to 135 °C. In turn, `C=CCOc1ccccc1C=C(C=O)C(C=O)=Cc1ccccc1OCC=C` returned a melting point of 117 to 118 °C. Molecule `CCn1nc(-c2ccc3cc(O)ccc3c2)c2ccc(O)cc21` had a melting point of 146 to 148 °C. The figure for `C=CCCCCCCCCC(=O)N1CCN(c2cc(N3CCCC3)nc(N3CCCC3)n2)CC1` is 93 to 96 °C; for `COC(=O)c1nc(-c2ccc(Cl)cc2)c(Cl)c(N)c1OC` it is 139 to 141 °C; for `COc1ccc(NC(C)=O)c(Sc2ccc([N+](=O)[O-])cc2[N+](=O)[O-])c1` it is 125 to 126 °C.

In the case of `COc1ccc(C2(C#Cc3cccc(-c4nnc(C)s4)c3)CCC(O)CC2)cc1OC1CCCC1` (configuration not stated), the melting point lay within 129 to 130 °C. `CC(C)c1nc(COC(N)=O)n(Cc2ccc[nH]c2=O)c1Sc1cc(Cl)cc(Cl)c1`: the melting point came to 214 °C. For the molecule `Cc1c(NC(=O)c2ccc(-c3ccccc3F)c(F)c2)ccc2cc(CN3CCCC3)cnc12`, the melting point was in the range of 139 to 140 °C. The figure for `OCCOCc1csc2ccccc12` is 149 to 150 °C. In the case of `C=CCP(=O)(c1ccccc1)c1ccccc1`, the melting point lay in the range of 94 to 96 °C. To `Cn1ncc2c1-c1c(Oc3ccc(OCc4ccc5ccccc5n4)cc3)sc(C(N)=O)c1CC2` belongs 139 to 140 °C.
